Values joined by “and” are separate entries in the source; they are usually repeats but may differ in a detail not shown here. Equal values may be shown once. Inconclusive results and toxic doses are left out.
Test system: L1210 leukemia ip in BDF1 mice, survival T/C
Assay: NCI In Vivo Anticancer Drug Screen. Data for tumor model L1210 Leukemia (intraperitoneal) in B6D2F1 (BDF1) mice
Settings: endpoint: mean survival time, higher = longer survival
Outline: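 Transplantable tumor model; survival measured in treated vs vehicle control mice. Value = treated/control.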

[1] = dose: 100.0 mg/kg/injection, schedule: Q01DX001 (ip), vehicle: saline
[2] = dose: 200.0 mg/kg/injection, schedule: Q01DX001 (ip), vehicle: saline
[3] = dose: 400.0 mg/kg/injection, schedule: Q01DX001 (ip), vehicle: saline
[4] = dose: 100.0 mg/kg/injection, schedule: Q01DX009 (ip), vehicle: saline with Tween-80
[5] = dose: 100.0 mg/kg/injection, schedule: Q04DX003 (ip), vehicle: saline with Tween-80
[6] = dose: 100.0 mg/kg/injection, schedule: Q01DX009 (ip), vehicle: Klucel (hydroxypropylcellulose) (HPC)
[7] = dose: 200.0 mg/kg/injection, schedule: Q01DX009 (ip), vehicle: Klucel (hydroxypropylcellulose) (HPC)
[8] = dose: 400.0 mg/kg/injection, schedule: Q01DX009 (ip), vehicle: Klucel (hydroxypropylcellulose) (HPC)

O=C(c1ccccc1)c1ccc[n+](Cc2c(Cl)cccc2Cl)c1
T/C (dose: 75.0 mg/kg/injection, schedule: Q01DX001 (ip), vehicle: saline): 101 % of control

Fc1ccc2c(c1)CC(CBr)O2 (configuration not stated)
T/C (dose: 50.0 mg/kg/injection, schedule: Q01DX001 (ip), vehicle: saline): 100 % of control
T/C [1]: 105 % of control
T/C [2]: 103 % of control
T/C [3]: 103 % of control

O=C1C=CC(=O)C(SCCSC2=CC(=O)C(SCCSC3=CC(=O)C=CC3=O)=CC2=O)=C1
T/C [1]: 98 % of control
T/C [2]: 101 % of control
T/C [3]: 95 % of control

CCCCC(C=O)(C=C=C(C)C)CC (configuration not stated)
T/C [4]: 89 % of control
T/C [5]: 92 % of control
T/C (dose: 200.0 mg/kg/injection, schedule: Q01DX009 (ip), vehicle: saline with Tween-80): 91 % of control
T/C (dose: 200.0 mg/kg/injection, schedule: Q04DX003 (ip), vehicle: saline with Tween-80): 93 % of control
T/C (dose: 400.0 mg/kg/injection, schedule: Q01DX009 (ip), vehicle: saline with Tween-80): 89 % of control
T/C (dose: 400.0 mg/kg/injection, schedule: Q04DX003 (ip), vehicle: saline with Tween-80): 98 % of control

O=S1(=O)CCS(=O)(=O)C12CCCCC2
T/C [1]: 98 % of control
T/C [2]: 107 % of control
T/C [3]: 90 % of control

O=C(O)CSC(SCC(=O)O)c1ccc(Cl)cc1Cl
T/C (dose: 100.0 mg/kg/injection, schedule: Q04DX002 (ip), vehicle: saline): 94 % of control
T/C (dose: 200.0 mg/kg/injection, schedule: Q04DX002 (ip), vehicle: saline): 98 % of control
T/C (dose: 400.0 mg/kg/injection, schedule: Q04DX002 (ip), vehicle: saline): 119 % of control

O=C(/C=C/c1ccc(Cl)cc1)c1ccc(Br)cc1
T/C [6]: 94 % of control
T/C [7]: 94 % of control
T/C [8]: 92 % of control

O=C(Cc1ccccc1)C(Cl)c1ccccc1 (configuration not stated)
T/C [1]: 94 % of control
T/C [2]: 105 % of control

C1CCC2C3CCC(C3)C2CC1 (configuration not stated)
T/C (dose: 100.0 mg/kg/injection, schedule: Q04DX002 (ip), vehicle: other): 122 % of control
T/C (dose: 200.0 mg/kg/injection, schedule: Q04DX002 (ip), vehicle: other): 92 % of control
T/C (dose: 400.0 mg/kg/injection, schedule: Q04DX002 (ip), vehicle: other): 88 % of control

Cc1cc(C)c(CC(C)(CO)CO)c(C)c1CC(C)(CO)CO
T/C [6]: 107 % of control
T/C [7]: 98 % of control
T/C [8]: 96 % of control

CCS(=O)(=O)Nc1ccc(Nc2c3ccccc3nc3ccccc23)c(OC)c1
T/C (dose: 2.5 mg/kg/injection, schedule: Q01DX009 (ip), vehicle: Klucel (hydroxypropylcellulose) (HPC)): 152 % of control
T/C (dose: 5.0 mg/kg/injection, schedule: Q01DX009 (ip), vehicle: Klucel (hydroxypropylcellulose) (HPC)): 168 % of control
T/C (dose: 5.0 mg/kg/injection, schedule: Q01DX009 (ip), vehicle: saline): 155 % of control
T/C (dose: 10.0 mg/kg/injection, schedule: Q01DX009 (ip), vehicle: Klucel (hydroxypropylcellulose) (HPC)): 163 % of control
T/C (dose: 10.0 mg/kg/injection, schedule: Q01DX009 (ip), vehicle: saline): 216 % of control
T/C (dose: 20.0 mg/kg/injection, schedule: Q01DX009 (ip), vehicle: Klucel (hydroxypropylcellulose) (HPC)): 86 % of control

CC(=O)CC(=O)CC(O)(C(F)(F)F)C(F)(F)F
T/C [4]: 96 % of control

CC(/C=C/c1ccc2c(c1)OCO2)[N+](=O)[O-] (configuration not stated)
T/C (dose: 100.0 mg/kg/injection, schedule: Q01DX001 (ip), vehicle: Klucel (hydroxypropylcellulose) (HPC)): 103 % of control
T/C (dose: 200.0 mg/kg/injection, schedule: Q01DX001 (ip), vehicle: Klucel (hydroxypropylcellulose) (HPC)): 103 % of control
T/C (dose: 400.0 mg/kg/injection, schedule: Q01DX001 (ip), vehicle: Klucel (hydroxypropylcellulose) (HPC)): 106 % of control

O=C1C=C(Br)C(=O)C1(Br)Br
T/C (dose: 75.0 mg/kg/injection, schedule: Q01DX001 (sc), vehicle: olive oil, sesame oil, peanut oil): 117 % of control

COC1=C(N2CC2)C(=O)c2ccccc2C1=O
T/C (dose: 25.0 mg/kg/injection, schedule: Q04DX003 (ip), vehicle: saline with Tween-80): 109 % of control
T/C (dose: 50.0 mg/kg/injection, schedule: Q04DX003 (ip), vehicle: saline with Tween-80): 101 % of control
T/C [5]: 101 % of control and 108 % of control

COc1ccc(/C(N=Nc2ccccc2)=N/N=C(N)N)cc1
T/C (dose: 20.0 mg/kg/injection, schedule: Q01DX001 (ip), vehicle: steriod suspending solution): 105 % of control
T/C (dose: 40.0 mg/kg/injection, schedule: Q01DX001 (ip), vehicle: steriod suspending solution): 94 % of control
T/C (dose: 80.0 mg/kg/injection, schedule: Q01DX001 (ip), vehicle: steriod suspending solution): 96 % of control

CN(N=Nc1ccc(C(N)=O)cc1)C1CCCCC1
T/C (dose: 100.0 mg/kg/injection, schedule: Q01DX001 (ip), vehicle: other): 91 % of control
T/C (dose: 200.0 mg/kg/injection, schedule: Q01DX001 (ip), vehicle: other): 107 % of control

Fc1ccccc1N=C=S
T/C (dose: 75.0 mg/kg/injection, schedule: Q01DX001 (ip), vehicle: other): 104 % of control
T/C (dose: 150.0 mg/kg/injection, schedule: Q01DX001 (ip), vehicle: other): 93 % of control

— PubChem BioAssay AID248 (DTP/NCI, 2004)
